{"source": "patent US6069145A", "about": "“Piperazinonephenyloxazolidinone derivatives and their use as antibacterial agents” (Zeneca Limited, priority 1996, dated 2000)", "type_in_all_cases": "cell-based", "key": {"[1]": {"system": "Streptococcus pyogenes C203", "assay": "agar-dilution MIC, S. pyogenes C203", "settings": "agar with 5% defibrinated horse blood, 10^4 CFU/spot, 37° C., 5% carbon dioxide, 48 hours", "experimental": "(§1) The following results were obtained on a standard in vitro test system. The activity is described in terms of the minimum inhibitory concentration (MIC) determined by the agar-dilution technique with an inoculum size of 10^4 CFU/spot.\n(§2) Streptococci and enterococci were tested on agar supplemented with 5% defibrinated horse blood, an inoculum of 10^4 CFU/spot and an incubation temperature of 37° C. in an atmosphere of 5% carbon dioxide for 48 hours--blood is required for the growth of some of the test organisms."}, "[2]": {"system": "Coagulase Negative Staphylococci MS", "assay": "agar-dilution MIC, coagulase negative staphylococci MS", "settings": "10^4 CFU/spot, 37° C., 24 hours", "experimental": "as §1\n(§3) Staphylococci were tested on agar, using an inoculum of 10^4 CFU/spot and an incubation temperature of 37° C. for 24 hours--standard test conditions for the expression of methicillin resistance."}, "[3]": {"system": "Staphylococcus aureus MRQR", "assay": "agar-dilution MIC, S. aureus MRQR", "settings": "methicillin resistant quinolone resistant, 10^4 CFU/spot, 37° C., 24 hours", "experimental": "as §1, §3\nMRQR = methicillin resistant quinolone resistant"}, "Enterococcus faecalis": {"system": "Enterococcus faecalis", "assay": "agar-dilution MIC, E. faecalis", "settings": "agar with 5% defibrinated horse blood, 10^4 CFU/spot, 37° C., 5% carbon dioxide, 48 hours", "experimental": "as §1, §2"}, "[4]": {"system": "Staphylococcus aureus MRQS", "assay": "agar-dilution MIC, S. aureus MRQS", "settings": "methicillin resistant quinolone sensitive, 10^4 CFU/spot, 37° C., 24 hours", "experimental": "as §1, §3\nMRQS = methicillin resistant quinolone sensitive"}, "[5]": {"system": "Coagulase Negative Staphylococci MR", "assay": "agar-dilution MIC, coagulase negative staphylococci MR", "settings": "methicillin resistant, 10^4 CFU/spot, 37° C., 24 hours", "experimental": "as §1, §3\nMR = methicillin resistant"}, "Bacillus subtilis": {"system": "Bacillus subtilis", "assay": "agar-dilution MIC, B. subtilis", "settings": "10^4 CFU/spot", "excerpt": "as §1"}, "[6]": {"system": "Staphylococcus aureus Oxford", "assay": "agar-dilution MIC, S. aureus Oxford", "settings": "10^4 CFU/spot, 37° C., 24 hours", "experimental": "as §1, §3"}}}
{"smiles": "CC(=O)NC[C@H]1CN(c2ccc(N3CCN(C)C(=O)C3)c(F)c2)C(=O)O1", "note": "[Example 1, N-(5S)-[3-(3-fluoro-4-{4-methyl-3-oxopiperazin-1-yl}phenyl)-2-oxooxazolidin-5-ylmethyl]acetamide]", "values": [{"measurement": "MIC", "setting": "[1]", "result": 1, "unit": "µg/mL"}, {"measurement": "MIC", "setting": "[2]", "result": 0.5, "unit": "µg/mL"}, {"measurement": "MIC", "setting": "[3]", "result": 4, "unit": "µg/mL"}, {"measurement": "MIC", "setting": "Enterococcus faecalis", "result": 2, "unit": "µg/mL"}, {"measurement": "MIC", "setting": "[4]", "result": 2, "unit": "µg/mL"}, {"measurement": "MIC", "setting": "[5]", "result": 1, "unit": "µg/mL"}, {"measurement": "MIC", "setting": "Bacillus subtilis", "result": 1, "unit": "µg/mL"}, {"measurement": "MIC", "setting": "[6]", "result": 1, "unit": "µg/mL"}]}
